# Data as given in patent publication US20050267025A1, “Compositions and methods for treatment of infectious and inflammatory diseases” (priority 2002, published 2005).
# System: human monocytes
# Assay type: cell-based
substance,measurement,value
polymyxin B [reference compound],effect on IL-10 promotion when added to yeast rCFP32 or CF from WT and mutant Mtb,no effect
